# Test results reported in paper PMC5437670 (Journal of the American Chemical Society, 2017).
# Key:
# [1] = molecular target: T1, Thermotoga maritima TmGH1 β-glucosidase (Thermotoga maritima, UniProt Q08638); test: Kinetic studies of reversible inhibition of TmGH1; format: biochemical; details: for inhibition of TmGH1 (in words): p-nitrophenyl β-D-glucopyranoside, Lineweaver–Burk method
# T1 sequence (Q08638 1-446): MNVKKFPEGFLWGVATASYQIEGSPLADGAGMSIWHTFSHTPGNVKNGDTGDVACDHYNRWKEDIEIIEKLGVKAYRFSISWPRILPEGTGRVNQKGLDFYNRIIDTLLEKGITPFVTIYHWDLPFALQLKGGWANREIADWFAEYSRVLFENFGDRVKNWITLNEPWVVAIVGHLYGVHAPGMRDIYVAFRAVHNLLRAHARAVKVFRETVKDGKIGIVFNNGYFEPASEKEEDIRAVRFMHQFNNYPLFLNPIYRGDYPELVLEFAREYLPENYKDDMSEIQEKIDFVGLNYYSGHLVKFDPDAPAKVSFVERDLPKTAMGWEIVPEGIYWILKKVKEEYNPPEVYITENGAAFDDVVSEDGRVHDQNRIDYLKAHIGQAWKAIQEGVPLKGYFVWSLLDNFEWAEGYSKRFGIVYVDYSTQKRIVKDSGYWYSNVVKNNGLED
# [2] = molecular target: recombinant human GAA (Myozyme), lysosomal α-glucosidase (Homo sapiens, UniProt P10253); test: Enzyme activity assay, apparent IC50 on GAA; format: biochemical
Ki [1],inhibition of TmGH1 (in words) [1],IC50 [2],inhibition of GAA (in words) ([2]; final concentrations up to 150 μM),SMILES
2.5 µM,low micromolar,–,–,"OC[C@H]1NC[C@H](O)[C@@H](O)[C@@H]1O [DNJ, deoxynojirimycin, reference compound]"
–,low micromolar,–,–,"OC[C@@H]1[C@@H](O)[C@H](O)[C@@H](O)CN1CCCCCOCC12CC3CC(CC(C3)C1)C2 [AMP-DNM (MZ-21), reference compound]"
0.0082 µM,–,> 150 µM,No apparent inhibition,[N-]=[N+]=NCCCCNC(=O)[C@@H]1[C@H]2[C@H](O)[C@@H](O)[C@H](O)[C@@H](CO)[C@@H]12 [Compound 5]
22.3 µM,micromolar inhibition,> 150 µM,–,CCOC(=O)[C@@H]1[C@H]2[C@H](O)[C@@H](O)[C@H](O)[C@@H](CO)[C@@H]12 [Compound 3]
